Experimental data published in the supplement of paper PMC10307832.

Key:
Assay in all cases: relative viability (nuclei count vs DMSO), 5 days (fraction); higher = more cells survive
BI-D1870 + Lapatinib = compound: CC(C)CCN1c2nc(Nc3cc(F)c(O)c(F)c3)ncc2N(C)C(=O)C1C [BI-D1870] + CS(=O)(=O)CCNCc1ccc(-c2ccc3ncnc(Nc4ccc(OCc5cccc(F)c5)c(Cl)c4)c3c2)o1 [Lapatinib] (partner 2 µM)
Outline: (§1)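 The day after seeding in 1536-well plates, lung cancer cell lines were treated by pin tool with a single drug, or with a fixed anchor-drug dose together with five library-drug doses (not always all listed) in √10 steps. After 5 days, a combined fix-and-stain solution (final 0.05% Triton X-100, 1% formaldehyde, 1 ug/ml Hoechst) was added. Nuclei counted on 4× images gave relative viability as treated counts over vehicle counts, reported as the median of duplicate plates.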

Zebularine + Tozasertib = compound: O=c1ncccn1[C@@H]1O[C@H](CO)[C@@H](O)[C@H]1O [Zebularine] + Cc1cc(Nc2cc(N3CCN(C)CC3)nc(Sc3ccc(NC(=O)C4CC4)cc3)n2)n[nH]1 [Tozasertib] (partner 0.1 µM)
Outline: as §1

Zebularine + Alpelisib = compound: O=c1ncccn1[C@@H]1O[C@H](CO)[C@@H](O)[C@H]1O [Zebularine] + Cc1nc(NC(=O)N2CCC[C@H]2C(N)=O)sc1-c1ccnc(C(C)(C)C(F)(F)F)c1 [Alpelisib] (partner 2 µM)
Outline: as §1

Zebularine + Olaparib = compound: O=c1ncccn1[C@@H]1O[C@H](CO)[C@@H](O)[C@H]1O [Zebularine] + O=C(c1cc(Cc2n[nH]c(=O)c3ccccc23)ccc1F)N1CCN(C(=O)C2CC2)CC1 [Olaparib] (partner 8 µM)
Outline: as §1

| Cell Line | relative viability (BI-D1870 + Lapatinib; first compound 0.04 µM) | relative viability (BI-D1870 + Lapatinib; first compound 0.1265 µM) | relative viability (BI-D1870 + Lapatinib; first compound 0.4 µM) | relative viability (BI-D1870 + Lapatinib; first compound 1.265 µM) | relative viability (BI-D1870 + Lapatinib; first compound 4 µM) | relative viability (Zebularine + Tozasertib; first compound 1 µM) | relative viability (Zebularine + Tozasertib; first compound 31.62 µM) | relative viability (Zebularine + Tozasertib; first compound 100 µM) | relative viability (Zebularine + Alpelisib; first compound 1 µM) | relative viability (Zebularine + Alpelisib; first compound 3.162 µM) | relative viability (Zebularine + Alpelisib; first compound 31.62 µM) | relative viability (Zebularine + Alpelisib; first compound 100 µM) | relative viability (Zebularine + Olaparib; first compound 1 µM) | relative viability (Zebularine + Olaparib; first compound 3.162 µM) | relative viability (Zebularine + Olaparib; first compound 10 µM) | relative viability (Zebularine + Olaparib; first compound 31.62 µM) | relative viability (Zebularine + Olaparib; first compound 100 µM) | relative viability (Zebularine + Tozasertib; first compound 3.162 µM) | relative viability (Zebularine + Tozasertib; first compound 10 µM) | relative viability (Zebularine + Alpelisib; first compound 10 µM) |
| --- | --- | --- | --- | --- | --- | --- | --- | --- | --- | --- | --- | --- | --- | --- | --- | --- | --- | --- | --- | --- |
| HARA | 0.973 | 0.722 | 0.842 | 0.998 | 0.74 | 0.105 | 0.0886 | 0.0769 | 1.01 | 0.804 | 0.818 | 0.572 | 0.901 | 0.491 | 0.926 | 0.647 | 0.437 | – | – | – |
| HCC-15 | 0.94 | 0.832 | 0.774 | 0.795 | 0.592 | 0.308 | 0.386 | 0.179 | 1.01 | 0.887 | 0.654 | 0.248 | 0.864 | 0.652 | 0.465 | 0.371 | 0.307 | 0.414 | 0.339 | 0.596 |
| HCC-44 | 1.05 | 1.04 | 1.02 | 0.961 | 1.1 | 1.14 | 0.418 | 0.361 | 0.818 | 0.938 | 0.639 | 0.265 | 0.974 | 0.971 | 0.762 | 0.825 | 0.39 | 1.05 | 0.82 | 0.463 |
| HCC-78 | 0.827 | 0.597 | 0.715 | 1.13 | 0.856 | 0.423 | 0.278 | 0.259 | 0.358 | 0.155 | 0.326 | 0.292 | 0.76 | 0.652 | – | 0.444 | 0.291 | 0.429 | 0.219 | 0.104 |
| HCC-366 | 1.09 | 1.01 | 1 | 1.21 | 0.389 | 0.169 | 0.132 | 0.0608 | 0.409 | 0.434 | 0.509 | 0.182 | 0.411 | 0.294 | 0.186 | 0.103 | 0.108 | 0.112 | 0.182 | 0.161 |
| IA-LM | 0.972 | 0.906 | 0.862 | 0.614 | 0.213 | – | – | – | 0.768 | 0.584 | 1.13 | 0.996 | 0.889 | 0.828 | – | 1.04 | 0.401 | – | – | 0.494 |
| LCLC-103H | – | – | – | – | – | 0.448 | 0.471 | 0.355 | 1.08 | 0.945 | 0.904 | 0.761 | 0.839 | 0.829 | 0.597 | 0.632 | 0.637 | 0.43 | 0.402 | 0.95 |
| NCI-H441 | – | – | – | – | – | 0.825 | 0.221 | 0.344 | 0.779 | 0.73 | 0.271 | 0.264 | 0.568 | 0.41 | 0.32 | 0.227 | 0.24 | 0.711 | 0.334 | 0.496 |
| NCI-H522 | – | – | – | – | – | 0.549 | 0.522 | 0.577 | – | – | – | – | 0.746 | 0.647 | 0.577 | 0.546 | 0.573 | 0.526 | 0.527 | – |
| NCI-H1299 | 0.903 | 0.957 | 0.95 | 0.915 | 0.743 | – | – | – | 1.05 | 1.16 | 1.16 | 0.529 | 1.06 | 0.893 | 0.852 | 0.805 | 0.447 | – | – | 0.836 |
| NCI-H1563 | 1.08 | 0.898 | 0.817 | 0.9 | 0.917 | – | – | – | 0.932 | 0.888 | 0.955 | 0.909 | – | – | – | – | – | – | – | 0.927 |
| NCI-H1623 | – | – | – | – | – | 0.513 | 0.535 | 0.389 | – | – | – | – | – | – | – | – | – | 0.437 | 0.39 | – |
| NCI-H1648 | – | – | – | – | – | 0.551 | 0.342 | 0.379 | – | – | – | – | 0.588 | 0.852 | 0.643 | 0.7 | 0.471 | 0.418 | 0.407 | – |
| NCI-H1650 | 0.822 | 0.715 | 0.721 | 0.753 | 0.738 | 0.509 | 0.361 | 0.341 | – | – | – | – | 0.731 | 0.642 | 0.634 | 0.912 | 0.39 | 0.308 | 0.325 | – |
| NCI-H1703 | 1.07 | 0.732 | 1.29 | 1.11 | 0.796 | – | – | – | 0.311 | 0.337 | 0.325 | 0.353 | 0.468 | 0.552 | 0.339 | 0.395 | 0.321 | – | – | 0.307 |
| NCI-H1792 | 0.926 | 0.953 | 0.881 | 0.967 | 0.794 | – | – | – | 0.8 | 0.622 | 0.215 | 0.316 | 0.228 | 0.131 | 0.204 | 0.171 | 0.182 | – | – | 0.514 |
| NCI-H2342 | – | – | – | – | – | 0.451 | 0.476 | 0.469 | – | – | – | – | 0.462 | 0.468 | 0.388 | 0.437 | 0.365 | 0.4 | 0.446 | – |
| SW 900 | – | – | – | – | – | 0.659 | 0.478 | 0.371 | – | – | – | – | 1.04 | 0.889 | – | 0.773 | 0.479 | 0.548 | 0.445 | – |
